Source: patent US7941211B2, “Preloading with macular pigment to improve photodynamic treatment of retinal vascular disorders” (ZeaVision, LLC., priority 2003, dated 2011)
Entries after “also recorded” stand apart in the source; their conditions may differ.

Tests used:
[1] = test system: vascular endothelial growth factor (VEGF); conditions: verteporfin-laser treatment; cited from earlier work
[2] = test system: inflammatory chorioretinal diseases; conditions: in vivo; cited from earlier work
poultry = conditions: compared against preparation of dietary 3R,3′R stereoisomer; test in Spain; cited from earlier work
inflammatory cytokines = conditions: cited from earlier work
[3] = even at very high dosages; cited from earlier work
[4] = target: Pi isoform of glutathione-S-transferase (GSTP1) (Homo sapiens, UniProt P09211); conditions: in vitro conditions; cited from earlier work
Sequence of Pi isoform of glutathione-S-transferase (GSTP1) (P09211 whole entry, canonical isoform): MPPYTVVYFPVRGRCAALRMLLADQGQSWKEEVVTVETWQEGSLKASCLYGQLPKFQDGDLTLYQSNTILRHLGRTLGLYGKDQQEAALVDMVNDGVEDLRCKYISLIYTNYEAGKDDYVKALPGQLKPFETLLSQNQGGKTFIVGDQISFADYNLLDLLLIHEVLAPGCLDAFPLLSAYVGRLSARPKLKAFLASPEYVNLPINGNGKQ

wet macular degeneration = test: ZeaVision customer survey: zeaxanthin supplements and PDT treatment (Example 2); format: in vivo, human
Source text: In the summer of 2004, the assignee company (ZeaVision LLC) began searching for customers who were: (i) taking zeaxanthin supplements they had purchased from ZeaVision, and (ii) had received one or more PDT treatments, for wet macular degeneration. They did this by sending postcards to customers, asking them to contact ZeaVision if they had received PDT treatment. Those customers who responded were briefly interviewed by phone by the customer support staff, who asked questions and filled in a worksheet that had been prepared to help guide the interviews. Most of these patients with age-related eye problems are in their 70's or 80's. They could not always provide exact dates when talking from memory during a phone call, and no efforts were made to check their actual medical records, or to consult with the ophthalmologists who performed their PDT treatments. In addition, nearly all of these patients were taking one or more additional vitamin supplements, such as lutein, Coenzyme Q10, and/or the AREDS formulation (all of which are commonly recommended by friends, relatives, and physicians), and at least one patient (identified as patient one, below) also received a steroid injection as part of their PDT therapy. […] Responses from patients who had been taking zeaxanthin for at least a month prior to a PDT treatment include the following examples: […]

[5] = test system: wet macular degeneration (subfoveal CNV); test: Case report: zeaxanthin pre-loading before verteporfin-laser PDT (Example 1); format: in vivo, human
Source text: Such a candidate became known to the Applicant, in mid to late 2003. Because of certain personal and business connections, they were contacted by a person, who had been told that (i) […] eyesight was deteriorating rapidly, due to macular degeneration, and (ii) they should take care of any business, financial, legal, and other matters as soon as possible, before […] eyesight became even worse. This person made their plight (and their severe depression, due to the very negative prognosis they had received from an expert) known to the Applicant. In response, the Applicant informed the patient that they (the Applicant) had made a number of charitable donations to support research at the Johns Hopkins School of Medicine, where some of the world's foremost experts in macular degeneration work. […] (the Applicant) offered to see whether they could obtain expedited treatment for the patient, by making some phone calls to people they knew who worked there. The patient accepted that offer, and was seen and treated not long thereafter, by a top expert at the Wilmer Eye Institute, a highly respected eye care and research institute affiliated with Johns Hopkins.
This patient had been taking zeaxanthin for a number of weeks, prior to being examined and treated at the Wilmer Eye Institute. Their dosage was believed to be 20 milligrams per day, from taking two 10 milligram capsules (purchased from ZeaVision LLC) per day, usually with meals. They also took various other vitamin supplements during the course of their treatment, and afterwards.
An adult at the time, was suffering from wet macular degeneration.
At about that time, the patient began taking zeaxanthin supplements. It is believed that their typical daily dosage was 20 milligrams, from two 10 milligram capsules per day, usually taken with meals. The patient is also believed to have taken various other nutritional supplements during the relevant span of time, although their full contents, dosages, and durations are not known.
According to notes created by the ophthalmologist at the Wilmer Institute, obtained by the Applicant with approval from the patient, the patient suffered from subfoveal CNV in their right eye. […] According to the patient, the ophthalmologist advised them that their course of treatment likely would require 5 or 6 verteporfin-laser treatments, over a span of up to about 2 years.
His left eye was similar in appearance but questionable in extent, and there was no proven disease progression. Therefore, the ophthalmologist recommended careful monitoring but no PDT at that time.
Despite that advice, the patient continued taking zeaxanthin.

retina = conditions: in vivo, po; cited from earlier work
[6] = Patient one, ZX from June 2004, first and only PDT about 2 months later, also steroid injection
[7] = right eye, January 2004, six months after PDT
[8] = right eye, October 2003, three months after PDT, zeaxanthin 20 mg/day

verteporfin
release of hormones that increase blood vessel growth (VEGF) [1]: stimulates, rather than suppresses
performance relative to verteporfin treatment of wet macular degeneration [2]: tended to perform better, and more effectively

meso-zeaxanthin
performance as colour additive for poultry (poultry): did not perform satisfactorily

CC1=C(/C=C/C(C)=C/C=C/C(C)=C/C=C/C=C(C)/C=C/C=C(C)/C=C/C2=C(C)C(=O)[C@@H](O)CC2(C)C)C(C)(C)C[C@H](O)C1=O [astaxanthin]
effect on inflammatory and similar responses (inflammatory cytokines): can help reduce inflammatory and similar responses

CC1=C(/C=C/C(C)=C/C=C/C(C)=C/C=C/C=C(C)/C=C/C=C(C)/C=C/C2=C(C)C[C@@H](O)CC2(C)C)C(C)(C)C[C@H](O)C1 [zeaxanthin]
pathological changes in animal tests [3]: did not cause any pathological changes, of any sort
binding affinity of macular enzymes [4]: relatively high affinity
need for further PDT sessions (doctor's statement) (wet macular degeneration; Patient four, ZX begun before second PDT session, first session without ZX did not stabilize): appeared to not need any more PDT sessions
need for further PDT treatments (doctor's statement) (wet macular degeneration; [6]): may not need to have any more treatments
results of PDT treatment (wet macular degeneration; [6]): results were good
ophthalmologist's assessment of eyes at followup (wet macular degeneration; Patient three, October 2004): their eyes had stabilized
doctor's assessment of eyes at followup (wet macular degeneration; Patient three, ZX for some months before second PDT in May 2004, late June 2004): their eyes had gotten better, and appeared to be stable
vision in PDT-treated left eye (wet macular degeneration; Patient two, 10 mg/day ZX from May 2004, four PDT sessions April-October 2004, October 2004): 20/30
patient's description of their results (wet macular degeneration; Patient two, 10 mg/day ZX, October 2004): super-good
ophthalmologist's assessment of sight (wet macular degeneration; Patient two, 10 mg/day ZX, PDT on left eye): sight restored and improved
adverse side effects (wet macular degeneration; all patients surveyed): did not cause any adverse side effects of any sort
interference with efficacy of PDT treatment (wet macular degeneration; all patients surveyed): did not interfere with the efficacy of PDT treatment
overall benefit (wet macular degeneration; in at least some patients): provided at least some benefits
condition of PDT-treated eye (doctor's statement) (wet macular degeneration; parent of respondent OD, PDT on right eye after three months of ZX): appeared to be stable
condition of fellow eye with dry macular degeneration (respondents' statements) (wet macular degeneration; several respondents with PDT in one eye only): remain stable, or in some cases improve
findings in the eye not previously treated with PDT ([5]; left eye, March 2004, patient taking zeaxanthin, no PDT so far): growth of choroidal neovascularization compared to January 2004
ophthalmologist's assessment of PDT results, as orally reported by the patient ([5]; left eye, three months after PDT of March 2004): results were good
biomicroscopic findings (subretinal hemorrhage) [5, 7]: clearing of the subretinal hemorrhage that was noted along the inferonasal aspect of the treated area
fluorescein angiography [5, 7]: still showed some increased staining in the area where the hemorrhage had cleared
leakage from CNV ([5]; right eye, March 2004): no new leakage from CNV to suggest the need for any treatment
biomicroscopic findings (subretinal hemorrhage and fluid) [5, 8]: clearing of much of the subretinal hemorrhage along the nasal aspect of the posterior pole with no new subretinal fluid
fluorescein angiography [5, 8]: no fluorescein leakage to suggest the need for any additional treatment at this time except at the inferonasal aspect of the treated area
ophthalmologist's assessment of the PDT results ([5]; right eye, three months after first PDT, zeaxanthin 20 mg/day): much better than expected; also recorded: far better than expected

CC1=C(/C=C/C(C)=C/C=C/C(C)=C/C=C/C=C(C)/C=C/C=C(C)/C=C/C2=C(C)C(=O)CCC2(C)C)C(C)(C)CCC1=O [canthaxanthin]
retinal deposition (retina): abnormal retinal deposition

CC1=C[C@H](O)CC(C)(C)[C@H]1/C=C/C(C)=C/C=C/C(C)=C/C=C/C=C(C)/C=C/C=C(C)/C=C/C1=C(C)C[C@@H](O)CC1(C)C [lutein, reference compound]
binding affinity of macular enzymes [4]: will not bind to lutein with any significant affinity
